# Source: patent US20060234919A1, “Use” (priority 2001, published 2006)
# Columns and labels:
# [1] = tested on: cyclophosphamide-induced cystitis; assay: cyclophosphamide-induced cystitis, plasma protein extravasation (Evans blue); assay type: in vivo, rat; conditions: oxytocin pre-treatment, 4 h
# Procedure: Cyclophosphamide (100 mg/kg) was injected i.p. in barbiturate-anaesthetised rats for the induction of acute cystitis. Control animals were injected with an appropriate volume (4 ml/kg) of the vehicle (154 mmol/l NaCl). Five min prior to the administration of cyclophosphamide or vehicle all animals were injected i.v. with the protein marker, Evans blue (20 mg/kg). At 4 h, when increases in vascular permeability have reached maximum values in this model (Aramori I, Zenkoh J, Morikawa N, O'Donnell N. Asano M, Nakamur K et al. Novel subtype-selective nonpeptide bradykinin antagonists FR167334 and FR173657. Mol Pharmacol 1997; 51: 171-176), the uriny bladder was excised following exsanguination, and the total tissue content of Evans blue was determined as above.
# Plasma protein extravasation in the urinary bladder of anaesthetised rats was made 4 h after i.p. injection of cyclophosphamide (100 mg/kg). Control animals were treated with appropriate volumes of the vehicles ([…] silicone oil or 4 ml/kg 154 mmol/l NaCl solution, respectively). Oxytocin (1 mg/ml) was injected s. c. 1 h before administration of xylene or cyclophosphamide while control rats received DMSO (0.5 ml/kg, s. c.). Plasma protein extravasation is given as total tissue content of the protein marker, Evans blue, given i. v. (20 mg/kg) 5 min prior to the induction of cystitis. […]
# [2] = tested on: hydrochloric acid-induced cystitis; assay: urinary frequency in rats with hydrochloric acid-induced cystitis; assay type: in vivo, rat
# Excerpt: Twenty Sprague-Dawley rats (body weight 220-250 g) were randomly divided into four equal groups: group 1, normal controls; group 2, a sham treatment (HCl-induced IC, with subsequent saline instillation); group 3, a sham treatment (HCl-induced IC, with subsequent acetic acid instillation); and group 4, stimulated (HCl-induced IC with oxytocin and acetic acid instillation). The IC animal model developed by Rivas et al. was used (Rivas D A, Chancellor M B, Shupp-Byme D, Shenot P J, McHugh K, McCue P. A molecular marker for the development of interstitial cystitis in a rat model: isoactin gene expression. J. Urol. 1997; 157: 1937-1940); IC was induced in groups 2-4 under general anaesthesia (using a combined subcutaneous injection with acepromazine 0.05 mg/kg, ketamine 50 mg/kg and xylazine 5 mg/kg). A sterile polyethylene catheter (outside diameter 1.27 mm; Becton Dickinson Company, Sparks, Md., USA) was inserted into the bladder through the urethra and all urine aspirated. […]
# The micturition pattern was measured both before and 3 weeks after intravesical HCl instillation, using a Grass 79 Polygraph (Grass Instruments Co., Quincy, Mass., USA). Rats were placed into a metabolic cage and micturition recorded automatically for […] (17.00-09.00 hours); all rats were assessed at the same time of the day to minimise the effect of the circadian cycle on micturition frequency and volume. […]
substance,measurement,setting,value
Oxytocin,"plasma protein extravasation, Evans blue accumulation in the bladder","[1]; cyclophosphamide 100 mg/kg i.p., cyclophosphamide alone 9.76±4.12",2.56 ± 1.28 mg
same,"plasma protein extravasation, Evans blue accumulation in the bladder",[1]; rats given the vehicle of cyclophosphamide,2.11 ± 1.37 mg
same,micturition frequency,"[2]; group 4 (HCl-induced IC with oxytocin 1 mg/ml instillation) vs group 2+3, after 3 weeks, P=0.05",significantly less
same,urine volume per micturition,[2]; group 4 (oxytocin instillation) vs group 2+3,not significantly higher
